Experimental data as given in ChEMBL document CHEMBL5500393, “Discovery and Optimization of Novel SaFabI Inhibitors as Specific Therapeutic Agents for MRSA Infection” (J Med Chem, 2024).
pIC50: −log10 of the molar value. In brackets after ≈: the same amount, converted by molar mass. Activity calls are given as the source filed them. No cut-off for these calls is given here.

Tests used:
[1] = molecular target: T1, Enoyl-[acyl-carrier-protein] reductase [NADPH] FabI (Staphylococcus aureus) (UniProt Q6GI75); assay: Inhibition of N-terminal his 6 tagged Staphylococcus aureus Fabi (1 to […] residues) expressed in Escherichia coli BL21 at 10 uM incubated for 30 mins in presence of NADPH by fluorescence based microplate reader analysis relative to control
T1 sequence (whole entry): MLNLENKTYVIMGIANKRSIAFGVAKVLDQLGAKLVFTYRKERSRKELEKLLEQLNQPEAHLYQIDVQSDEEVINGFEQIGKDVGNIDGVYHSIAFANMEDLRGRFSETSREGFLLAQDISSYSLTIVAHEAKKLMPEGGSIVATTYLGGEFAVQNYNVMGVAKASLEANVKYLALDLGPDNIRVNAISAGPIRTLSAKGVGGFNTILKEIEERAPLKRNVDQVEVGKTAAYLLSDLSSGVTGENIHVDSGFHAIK

[2] = molecular target: T1, Enoyl-[acyl-carrier-protein] reductase [NADPH] FabI (Staphylococcus aureus); assay: Inhibition of N-terminal his 6 tagged Staphylococcus aureus Fabi (1 to […] residues) expressed in Escherichia coli BL21 at 1 uM incubated for 30 mins in presence of NADPH by fluorescence based microplate reader analysis relative to control
[3] = Inhibition of N-terminal his 6 tagged Escherichia coli Fabi (1 to 789 residues) expressed in Escherichia coli BL21 incubated for 30 mins in presence of NADH by fluorescence based microplate reader analysis
[4] = Inhibition of N-terminal his 6 tagged Acinetobacter baumannii Fabi (1 to 804 residues) expressed in Escherichia coli BL21 incubated for 30 mins in presence of NADH by fluorescence based microplate reader analysis
Staphylococcus aureus [5] = assay: Antimicrobial activity against […] Staphylococcus aureus ATCC33591 measured after 24 hrs by CLSI protocol based microdilution method; format: functional
Staphylococcus aureus [6] = assay: Antimicrobial activity against […] Staphylococcus aureus ATCC43300 measured after 24 hrs by CLSI protocol based microdilution method; format: functional
Staphylococcus aureus [7] = assay: Antimicrobial activity against […] Staphylococcus aureus NRS271 measured after 24 hrs by CLSI protocol based microdilution method; format: functional
Enterococcus faecium = assay: Antimicrobial activity against Enterococcus faecium ATCC19434 measured after 24 hrs by CLSI protocol based microdilution method; format: functional
Candida albicans = assay: Antimicrobial activity against Candida albicans SC5314 measured after 48 hrs by CLSI protocol based microdilution method; format: functional
[8] = Cytotoxicity against HEK293 cells assessed as survival rate at 400 uM measured after 48 hrs by CCK-8 method relative to control; format: toxicity, cell-based; settings: human, read-out: Survival
HepG2 [9] = assay: Cytotoxicity against human HepG2 cells assessed as survival rate at 400 uM measured after 48 hrs by CCK-8 method relative to control; format: functional; settings: read-out: Survival
HepG2 [10] = assay: Cytotoxicity against human HepG2 cells assessed as survival rate at 800 uM measured after 48 hrs by CCK-8 method relative to control; format: functional; settings: read-out: Survival
[11] = Hemolytic activity in sheep erythrocytes assessed as hemolysis at 256 ug/ml incubated for 1 hr by microplate reader based analysis relative to control; format: toxicity, cell-based, Ovis aries, Erythrocyte; settings: at 256 µg/mL, read-out: Activity
[12] = Hemolytic activity in sheep erythrocytes assessed as hemolysis incubated for 1 hr by microplate reader based analysis; format: toxicity, cell-based, Ovis aries, Erythrocyte
[13] = Selectivity index, ratio of HC50 for sheep erythrocytes to MIC for Staphylococcus aureus; format: toxicity; settings: read-out: Selectivity Index
Staphylococcus aureus [14] = assay: Bactericidal activity against […] Staphylococcus aureus ATCC33591 measured upto 24 hr by time-kill assay; format: functional, organism-based
Staphylococcus aureus [15] = assay: Bactericidal activity against […] Staphylococcus aureus ATCC33591 assessed as reduction in bacterial count at 4 times MIC measured within 24 hrs by time-kill assay; format: functional, organism-based
Staphylococcus aureus [16] = assay: Bactericidal activity against […] Staphylococcus aureus ATCC33591 assessed as reduction in bacterial count at 8 times MIC measured within 8 to 12 hrs by time-kill assay; format: functional, organism-based; settings: time 8-12 hrs
Cell membrane [17] = assay: Induction of cell membrane permeability in methicillin-resistant Staphylococcus aureus ATCC33591 assessed as increase in fluorescence measured after 30 mins by 7-AAD staining based analysis; format: cell membranes
Cell membrane [18] = assay: Induction of cell membrane permeability in methicillin-resistant Staphylococcus aureus ATCC33591 assessed as fold increase in fluorescence intensity at 1 times MIC measured after 30 mins by Annexin V-FITC staining based analysis; format: cell membranes
Cell membrane [19] = assay: Induction of cell membrane damage in methicillin-resistant Staphylococcus aureus ATCC33591 assessed as increase in red fluorescence at 1 times MIC measured after 30 mins by […] analysis; format: cell membranes
Cell membrane [20] = assay: Induction of cell membrane damage in methicillin-resistant Staphylococcus aureus ATCC33591 assessed as broken cell surface at 1 times MIC measured after 30 mins by TEM analysis; format: cell membranes
Staphylococcus aureus [21] = assay: Antimicrobial activity against wild type Staphylococcus aureus RN4220 measured after 24 hrs by CLSI protocol based microdilution method; format: functional
Staphylococcus aureus [22] = assay: Antimicrobial activity against Staphylococcus aureus RN4220 harbouring pCM-sfgfp measured after 24 hrs by CLSI protocol based microdilution method; format: functional
Staphylococcus aureus [23] = assay: Antimicrobial activity against Staphylococcus aureus RN4220 harbouring pCM-sfgfp::fabi (promoter-sarA) measured after 24 hrs by CLSI protocol based microdilution method; format: functional
[24] = molecular target: T1, Enoyl-[acyl-carrier-protein] reductase [NADPH] FabI (Staphylococcus aureus); assay: Binding affinity to N-terminal his 6 tagged Staphylococcus aureus Fabi (1 to […] residues) expressed in Escherichia coli BL21 assessed as increase in thermal stability at 10 ug/ml measured after 1 hr by […] assay; settings: dose 10.0 µg/ml
[25] = Acute toxicity in female BALB/c mouse assessed as effect on body weight at 800 mg/kg, po measured after 14 days; format: organism-based; settings: in vivo, 336 h, time 14 day
[26] = Acute toxicity in female BALB/c mouse assessed as effect on ALB level in serum at 800 mg/kg, po measured after 14 days; format: organism-based; settings: in vivo, 336 h, time 14 day
[27] = Acute toxicity in female BALB/c mouse assessed as effect on UREA level in serum at 800 mg/kg, po measured after 14 days; format: organism-based; settings: in vivo, 336 h, time 14 day
[28] = Acute toxicity in female BALB/c mouse assessed as effect on liver at 800 mg/kg, po measured after 14 days by H and E staining based analysis; format: organism-based; settings: in vivo, 336 h, time 14 day
[29] = Drug concentration in BALB/c mouse plasma at 800 mg/kg, po measured after 1 hr by LC-MS analysis; format: ADME, organism-based
[30] = Metabolic stability in human liver microsomes assessed as intrinsic clearance at 1 uM measured upto 120 mins in presence of NADPH by LC-MS analysis; format: ADME, Microsome; settings: read-out: CLH
[31] = Clearance in female Sprague-Dawley rat at 5 mg/kg, iv measured upto 24 hrs by LC-MS analysis; format: ADME, organism-based; settings: in vivo
[32] = AUC (0 to t) in female Sprague-Dawley rat at 5 mg/kg, iv measured upto 24 hrs by LC-MS analysis; format: ADME, organism-based; settings: in vivo
[33] = Half life in female Sprague-Dawley rat at 20 mg/kg, po measured upto 24 hrs by LC-MS analysis; format: ADME, organism-based; settings: in vivo
[34] = AUC (0 to t) in female Sprague-Dawley rat at 20 mg/kg, po measured upto 24 hrs by LC-MS analysis; format: ADME, organism-based; settings: in vivo

SMILES | inhibition [1] | inhibition [2] | pIC50 [3] | pIC50 [4] | MIC (Staphylococcus aureus [5]) | MIC (Staphylococcus aureus [6]) | MIC (Staphylococcus aureus [7]) | MIC (Enterococcus faecium) | MIC (Candida albicans) | viability at 48 h, 400 µM [8] | viability at 400 µM (HepG2 [9]) | viability at 800 µM (HepG2 [10]) | hemolysis at 1 h, 256 ug/ml [11] | HC50 at 1 h [12] | selectivity ratio [13] | Activity (Staphylococcus aureus [14]) | Activity (Staphylococcus aureus [15]) | Activity (Staphylococcus aureus [16]) | Activity (Cell membrane [17]) | fold change (FC) (Cell membrane [18]) | also measured
COc1c(Br)cccc1N1CC(c2nc3ccccc3n2C)CC1=O (configuration not stated) | 99.3% | 89.6% | 7.44 | 6.57 | 1 µg/mL (≈ 2.5 µM) | 2 µg/mL (≈ 5 µM) | 2 µg/mL (≈ 5 µM) | > 32 µg/mL | > 32 µg/mL | > 70% | > 70% | > 65% | 8.1% | > 256 µg/mL | > 128 | Dose-Dependent Effect | Below limit of detection | Below limit of detection | Active | 2.4 | Activity (Cell membrane [19]): Active; Activity (Cell membrane [20]): Active; MIC (Staphylococcus aureus [21]): 2 µg/mL (≈ 5 µM); MIC (Staphylococcus aureus [22]): 2 µg/mL (≈ 5 µM); MIC (Staphylococcus aureus [23]): > 32 µg/mL; Activity [24]: Active; Activity [25]: Non-Toxic; Activity [26]: Non-Toxic; Activity [27]: Non-Toxic; Activity [28]: Non-Toxic; concentration at 1 h [29]: 32700 ng/mL; CLint scaled at 1 µM [30]: 45.4 mL/min/kg; clearance [31]: 36.7 mL/min/kg; AUCt [32]: 2264.4 ng·h/mL; t1/2 [33]: 9.3 h; AUCt [34]: 3127 ng·h/mL
Cc1c(Br)cccc1N1CC(c2nc3ccccc3n2C)CC1=O (configuration not stated) | 98.7% | 88.9% | 7.44 | 6.57 | 1 µg/mL (≈ 2.6 µM) | 1 µg/mL (≈ 2.6 µM) | 2 µg/mL (≈ 5.2 µM) | > 32 µg/mL | > 32 µg/mL | > 70% | > 70% | > 75% | 9.9% | > 256 µg/mL | > 128 | Dose-Dependent Effect | Below limit of detection | Below limit of detection | Active | 2.6 | Activity (Cell membrane [19]): Active; Activity (Cell membrane [20]): Active; MIC (Staphylococcus aureus [21]): 2 µg/mL (≈ 5.2 µM); MIC (Staphylococcus aureus [22]): 2 µg/mL (≈ 5.2 µM); MIC (Staphylococcus aureus [23]): > 32 µg/mL; Activity [24]: Active; Activity [25]: Non-Toxic; Activity [26]: Non-Toxic; Activity [27]: Non-Toxic; Activity [28]: Non-Toxic; concentration at 1 h [29]: 53600 ng/mL; CLint scaled at 1 µM [30]: 27.3 mL/min/kg; clearance [31]: 26.7 mL/min/kg; AUCt [32]: 3238.8 ng·h/mL; t1/2 [33]: 8.7 h; AUCt [34]: 11149.1 ng·h/mL
